In PubChem BioAssay AID608 (Sanford-Burnham Center for Chemical Genomics, 2007):
Active and inactive are the calls of the source. The rule behind the calls is not given here.

molecular target: Peptidyl-prolyl cis-trans isomerase FKBP1A (Homo sapiens) (UniProt P62942); experiment: small-molecule binding to FKBP12 – biophysical, NMR detection (AID 608); settings: purified FKBP12
Sequence (P62942 whole entry, looked up): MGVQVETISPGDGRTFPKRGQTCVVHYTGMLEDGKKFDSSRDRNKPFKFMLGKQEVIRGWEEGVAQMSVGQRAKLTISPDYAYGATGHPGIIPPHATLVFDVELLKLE

With `Cn1cnnc1SCC(=O)Nc1ccccc1` as the molecule, how does the Kd read?
The Kd was > 4 mM (inactive).

With `Cc1cc(=O)cc(C)n1-c1ccccc1N1CCOCC1` as the molecule, how does the Kd read?
The Kd was > 4 mM (inactive).

Which Kd does the source give for `CCCn1cnc2sc(C(N)=O)c(C)c2c1=O` here?
Its Kd is > 4 mM (inactive).

Which Kd does the source give for `COc1c2ccoc2cc2oc(C)cc(=O)c12` here?
Its Kd is > 4 mM (inactive).

`O=C(Nc1cnccn1)c1cccs1` was tested. Which Kd did it give?
Its Kd is > 4 mM (inactive).

`O=C(O)C1CC(=O)N(Cc2ccco2)C1` (stereo not given) was tested. Which Kd did it give?
The Kd was > 4 mM (inactive).

For `COc1c(O)cc2c(-c3ccccc3)cc(=O)oc2c1OC`, which Kd is on record?
Its Kd is > 4 mM (inactive).

How did the Kd turn out when `Cc1csc2nc(=O)c3ccccc3n12` was run?
Its Kd is > 4 mM (inactive).

Which Kd does the source give for `CC(=O)Oc1cc(OC(C)=O)c2c(c1)O[C@H](c1ccc(OC(C)=O)c(OC(C)=O)c1)[C@H](OC(C)=O)C2` here?
Its Kd is > 4 mM (inactive).

With `OC1CCN(C(=S)NC2CC2)CC1` as the molecule, how does the Kd read?
Its Kd is > 4 mM (inactive).

How did the Kd turn out when `Cn1nc(C(=O)Nc2cccnc2)cc1Cl` was run?
Its Kd is > 4 mM (inactive).

For `O=C(c1cc(Cl)cc(Cl)c1)N1CCOCC1`, which Kd is on record?
The Kd was > 4 mM (inactive).

`Nc1ccc(Cc2ccncc2)cc1` was tested. Which Kd did it give?
The Kd was > 4 mM (inactive).

With `CCN1CCn2c1nc(N1CCOCC1)nc2=O` as the molecule, how does the Kd read?
Its Kd is > 4 mM (inactive).

Which Kd does the source give for `C[N+](C)(C)CC(=O)[O-]` here?
The Kd was > 4 mM (inactive).

Which Kd does the source give for `Nc1ccc(-n2cccn2)cc1` here?
The Kd was > 4 mM (inactive).

For `COC(=O)Cc1cc(=O)n(-c2nc3ccccc3s2)[nH]1`, which Kd is on record?
The Kd was > 4 mM (inactive).

With `COc1cc(O)ccc1C(C)=O` as the molecule, how does the Kd read?
Its Kd is > 4 mM (inactive).

`S=c1nc[nH]c2c1cnn2-c1ccccc1` was tested. Which Kd did it give?
The Kd was > 4 mM (inactive).

With `c1ccc(-c2csc(Nc3cccnc3)n2)nc1` as the molecule, how does the Kd read?
Its Kd is > 4 mM (inactive).

With `O=C1CSC(=Nc2ccccc2[N+](=O)[O-])N1` as the molecule, how does the Kd read?
Its Kd is > 4 mM (inactive).

With `O=C(c1cc2ccccc2o1)c1nc2c(n1O)CCCCC2` as the molecule, how does the Kd read?
The Kd was > 4 mM (inactive).

How did the Kd turn out when `N#CCSc1nc(-c2ccccc2)cs1` was run?
Its Kd is > 4 mM (inactive).

For `NC1=NC(=O)/C(=C\c2ccco2)S1`, which Kd is on record?
Its Kd is > 4 mM (inactive).

`CSc1ccc(C(=S)N2CCN(C)CC2)cc1` was tested. Which Kd did it give?
The Kd was > 4 mM (inactive).

With `Cc1cc(C)n(S(=O)(=O)c2ccc(C)c(C)c2C)n1` as the molecule, how does the Kd read?
The Kd was > 4 mM (inactive).

How did the Kd turn out when `Cc1cc(C(=O)NC(C)c2ccncc2)cs1` (stereo not given) was run?
The Kd was > 4 mM (inactive).

`COc1c(F)c(F)c(-c2csc(N)n2)c(F)c1F` was tested. Which Kd did it give?
Its Kd is > 4 mM (inactive).

With `CC(=O)Nc1cccc(-c2nnc3n2CC(C)S3)c1` (stereo not given) as the molecule, how does the Kd read?
Its Kd is > 4 mM (inactive).

How did the Kd turn out when `COC(=O)Nc1nc2c(s1)CCCC2` was run?
Its Kd is > 4 mM (inactive).

`c1ccc2c(c1)nc(-c1cscn1)n2CCCCc1nn[nH]n1` was tested. Which Kd did it give?
Its Kd is “inactive”.

Which Kd does the source give for `CC[C@@]1(O)C[C@H](O)c2c(cc3c(c2O)C(=O)c2c(O)ccc(O)c2C3=O)[C@H]1C(=O)OC` here?
The Kd was > 4 mM (inactive).

With `NCc1ccc2c(c1)CCO2` as the molecule, how does the Kd read?
The Kd was > 4 mM (inactive).

With `NCCc1c[nH]c2ccccc12` as the molecule, how does the Kd read?
Its Kd is > 4 mM (inactive).

How did the Kd turn out when `CCC(=O)n1nc(-c2ccco2)nc1N` was run?
The Kd was > 4 mM (inactive).

Which Kd does the source give for `CC(C)c1ccc2c(c1O)CC[C@H]1C3=C(CC[C@]21C)C(=O)OC3` here?
The Kd was > 4 mM (inactive).

With `CCC(=O)Nc1cccc(NC(C)=O)c1` as the molecule, how does the Kd read?
Its Kd is > 4 mM (inactive).

`Cc1[nH]ccc2c1[nH]c1cc(=O)ccc12` was tested. Which Kd did it give?
Its Kd is > 4 mM (inactive).

For `CN=C(c1ccc([N+](=O)[O-])cc1)N(C)C`, which Kd is on record?
The Kd was > 4 mM (inactive).

How did the Kd turn out when `CS(=O)(=O)Nc1ccccc1C(=O)c1ccccc1` was run?
Its Kd is > 4 mM (inactive).

How did the Kd turn out when `CNC(=O)C1=NCCCc2cc(OC)c(OC)cc21` was run?
The Kd was > 4 mM (inactive).

Which Kd does the source give for `CC1(C)CC2C1CCC1(C)OC2(C)CCC1O` (stereo not given) here?
Its Kd is > 4 mM (inactive).

How did the Kd turn out when `COc1ccc(C(O)c2nccn2C)cc1` (stereo not given) was run?
The Kd was > 4 mM (inactive).

`COc1ccc(-c2cc3nc4n(c(=O)c3s2)CCC4)cc1` was tested. Which Kd did it give?
The Kd was > 4 mM (inactive).

Which Kd does the source give for `O=C1NC(=O)C(C(=S)Nc2ccccc2)C(=O)N1` here?
The Kd was > 4 mM (inactive).

`Cc1ccc(OCC(=O)N2CC(C)OC(C)C2)cc1C` (stereo not given) was tested. Which Kd did it give?
Its Kd is > 4 mM (inactive).

Which Kd does the source give for `CC(=O)Nc1ccc(N(C)C(C)=O)cc1` here?
Its Kd is > 4 mM (inactive).

How did the Kd turn out when `O=C(Nc1ccccc1C(F)(F)F)N1CCCCCC1` was run?
Its Kd is > 4 mM (inactive).

How did the Kd turn out when `COC(=O)c1sccc1S(=O)(=O)N1CCCC1` was run?
Its Kd is > 4 mM (inactive).

Which Kd does the source give for `CC(=O)O[C@H]1CC[C@@]2(C)C(CC[C@]3(C)C2CC=C2C4CC(C)(C)CC[C@]4(C)CC[C@]23C)C1(C)C` (stereo not given in full) here?
Its Kd is > 4 mM (inactive).

Which Kd does the source give for `CSc1ccccc1NC(=O)c1ccoc1C` here?
Its Kd is > 4 mM (inactive).

How did the Kd turn out when `CN1CCN(C2CCSC2)CC1` (stereo not given) was run?
The Kd was > 4 mM (inactive).

Which Kd does the source give for `CCC(=O)Nc1ccccc1NC(C)=O` here?
The Kd was > 4 mM (inactive).

With `O=C(O)c1cncc(-c2ccccc2)c1` as the molecule, how does the Kd read?
The Kd was > 4 mM (inactive).

With `Fc1ccc(NC2=NCCS2)cc1Cl` as the molecule, how does the Kd read?
The Kd was > 4 mM (inactive).

Which Kd does the source give for `O=C(COc1cc(Cl)c(Cl)cc1Cl)N1CCOCC1` here?
Its Kd is “inactive”.

For `CC(=O)OCC(=O)[C@@]1(O)CCC2C3CC[C@@H]4C[C@H](OC(C)=O)CC[C@]4(C)C3C(=O)C[C@@]21C` (stereo not given in full), which Kd is on record?
The Kd was > 4 mM (inactive).

How did the Kd turn out when `CN1C(=O)C2C=CC1C1C(=O)N(c3ccccc3)C(=O)C21` (stereo not given) was run?
Its Kd is > 4 mM (inactive).

For `COc1cc([C@H]2Oc3cc([C@H]4Oc5cc(O)cc(O)c5C(=O)[C@@H]4O)ccc3O[C@@H]2CO)ccc1O`, which Kd is on record?
The Kd was > 4 mM (inactive).

Which Kd does the source give for `c1cncc(Nc2nc(-c3cccnc3)cs2)c1` here?
The Kd was > 4 mM (inactive).
